According to patent US6352958B1, “Cycloimido-substituted benzofused heterocyclic herbicides” (FMC Corporation, priority 1997, dated 2002):

Experiments:
Type in all cases: in vivo
[1] = test system: soybean (Glycine max var. Winchester); assay: Preemergence herbicidal activity, soybean; details: Rate of Application 0.3 Kg/Ha, examined after 12-17 days
[2] = test system: wheat (Triticum aestivum var. Lew); assay: Preemergence herbicidal activity, wheat; details: Rate of Application 0.3 Kg/Ha, examined after 12-17 days
[3] = test system: field corn (Zea mays var. Pioneer 3732); assay: Preemergence herbicidal activity, corn; details: Rate of Application 0.3 Kg/Ha, examined after 12-17 days
[4] = test system: velvetleaf (Abutilon theophrasti); assay: Preemergence herbicidal activity, velvetleaf; details: Rate of Application 0.3 Kg/Ha, examined after 12-17 days
[5] = test system: morningglory (Ipomea lacunosa or Ipomea hederacea); assay: Preemergence herbicidal activity, morningglory; details: Rate of Application 0.3 Kg/Ha, examined after 12-17 days
[6] = test system: common chickweed (Stellaria media); assay: Preemergence herbicidal activity, chickweed; details: Rate of Application 0.3 Kg/Ha, examined after 12-17 days
[7] = test system: common cocklebur (Xanthium strumarium L.); assay: Preemergence herbicidal activity, cocklebur; details: Rate of Application 0.3 Kg/Ha, examined after 12-17 days
[8] = test system: blackgrass (Aloepecurus myosuroides); assay: Preemergence herbicidal activity, blackgrass; details: Rate of Application 0.3 Kg/Ha, examined after 12-17 days
[9] = test system: green foxtail (Setaria viridis); assay: Preemergence herbicidal activity, green foxtail; details: Rate of Application 0.3 Kg/Ha, examined after 12-17 days
[10] = test system: Johnsongrass (Sorghum halepense); assay: Preemergence herbicidal activity, johnsongrass; details: Rate of Application 0.3 Kg/Ha, examined after 12-17 days
[11] = test system: soybean (Glycine max var. Winchester); assay: Postemergence herbicidal activity, soybean; details: rate of application 0.3 Kg/Ha, rated after 12-17 days
[12] = test system: wheat (Triticum aestivum var. Lew); assay: Postemergence herbicidal activity, wheat; details: rate of application 0.3 Kg/Ha, rated after 12-17 days
[13] = test system: field corn (Zea mays var. Pioneer 3732); assay: Postemergence herbicidal activity, corn; details: rate of application 0.3 Kg/Ha, rated after 12-17 days
[14] = test system: velvetleaf (Abutilon theophrasti); assay: Postemergence herbicidal activity, velvetleaf; details: rate of application 0.3 Kg/Ha, rated after 12-17 days
[15] = test system: morningglory (Ipomea lacunosa or Ipomea hederacea); assay: Postemergence herbicidal activity, morningglory; details: rate of application 0.3 Kg/Ha, rated after 12-17 days
[16] = test system: common chickweed (Stellaria media); assay: Postemergence herbicidal activity, chickweed; details: rate of application 0.3 Kg/Ha, rated after 12-17 days
[17] = test system: common cocklebur (Xanthium strumarium L.); assay: Postemergence herbicidal activity, cocklebur; details: rate of application 0.3 Kg/Ha, rated after 12-17 days
[18] = test system: blackgrass (Aloepecurus myosuroides); assay: Postemergence herbicidal activity, blackgrass; details: rate of application 0.3 Kg/Ha, rated after 12-17 days
[19] = test system: green foxtail (Setaria viridis); assay: Postemergence herbicidal activity, green foxtail; details: rate of application 0.3 Kg/Ha, rated after 12-17 days
[20] = test system: Johnsongrass (Sorghum halepense); assay: Postemergence herbicidal activity, johnsongrass; details: rate of application 0.3 Kg/Ha, rated after 12-17 days

| SMILES | PREEMERGENCE HERBICIDAL ACTIVITY (% CONTROL) SOY [1] | PREEMERGENCE HERBICIDAL ACTIVITY (% CONTROL) WHT [2] | PREEMERGENCE HERBICIDAL ACTIVITY (% CONTROL) CRN [3] | PREEMERGENCE HERBICIDAL ACTIVITY (% CONTROL) ABUTH [4] | PREEMERGENCE HERBICIDAL ACTIVITY (% CONTROL) IPOSS [5] | PREEMERGENCE HERBICIDAL ACTIVITY (% CONTROL) STEME [6] | PREEMERGENCE HERBICIDAL ACTIVITY (% CONTROL) XANPE [7] | PREEMERGENCE HERBICIDAL ACTIVITY (% CONTROL) ALOMY [8] | PREEMERGENCE HERBICIDAL ACTIVITY (% CONTROL) SETVI [9] | PREEMERGENCE HERBICIDAL ACTIVITY (% CONTROL) SORHA [10] | Postemergence herbicidal activity (% control) SOY [11] | Postemergence herbicidal activity (% control) WHT [12] | Postemergence herbicidal activity (% control) CRN [13] | Postemergence herbicidal activity (% control) ABUTH [14] | Postemergence herbicidal activity (% control) IPOSS [15] | Postemergence herbicidal activity (% control) STEME [16] | Postemergence herbicidal activity (% control) XANPE [17] | Postemergence herbicidal activity (% control) ALOMY [18] | Postemergence herbicidal activity (% control) SETVI [19] | Postemergence herbicidal activity (% control) SORHA [20] |
| --- | --- | --- | --- | --- | --- | --- | --- | --- | --- | --- | --- | --- | --- | --- | --- | --- | --- | --- | --- | --- |
| Cn1c(C(F)(F)F)cc(=O)n(-c2c(F)cc(Cl)c3cc(CCC(=O)O)oc23)c1=O [Compound 262] | 90% | 40% | 40% | 100% | 100% | 100% | 100% | 50% | 100% | 70% | 95% | 60% | 80% | 100% | 100% | 95% | 95% | 50% | 100% | 80% |
| COC(=O)CCc1cc2c(Cl)cc(F)c(-n3c(=O)cc(C(F)(F)F)n(C)c3=O)c2o1 [Compound 263] | 100% | 50% | 65% | 100% | 100% | 100% | 95% | 75% | 100% | 70% | 95% | 80% | 90% | 100% | 100% | 100% | 100% | 60% | 90% | 70% |
| CCOC(=O)c1cc2cccc(-n3c(=O)cc(C(F)(F)F)n(C)c3=O)c2o1 [Compound 267] | 0% | 10% | 20% | 10% | 10% | 0% | 50% | 50% | 5% | 0% | 50% | 15% | 50% | 80% | 40% | 10% | 10% | 20% | 30% | 20% |
